Test results as given in US20250361202A1, “CALPAIN INHIBITOR” (GORYO CHEMICAL, INC., priority 2022, published 2025).

How the values were obtained:
[1] = molecular target: T1, calpain-1 from human erythrocytes (Homo sapiens, UniProt P07384); assay: Calpain Inhibitory Activity Measurement 2 (HMRG fluorescent probe, various inhibitor concentrations, IC50); assay type: biochemical; conditions: fluorescent probe 5 μM; calpain-1 6.48 μg/mL; 37° C., 30 minutes; Tris buffer pH 7.4
T1 construct: calpain-1 from human erythrocytes; purchased Merck Millipore 208713; host or cells: human erythrocytes
T1 sequence (P07384 1-714): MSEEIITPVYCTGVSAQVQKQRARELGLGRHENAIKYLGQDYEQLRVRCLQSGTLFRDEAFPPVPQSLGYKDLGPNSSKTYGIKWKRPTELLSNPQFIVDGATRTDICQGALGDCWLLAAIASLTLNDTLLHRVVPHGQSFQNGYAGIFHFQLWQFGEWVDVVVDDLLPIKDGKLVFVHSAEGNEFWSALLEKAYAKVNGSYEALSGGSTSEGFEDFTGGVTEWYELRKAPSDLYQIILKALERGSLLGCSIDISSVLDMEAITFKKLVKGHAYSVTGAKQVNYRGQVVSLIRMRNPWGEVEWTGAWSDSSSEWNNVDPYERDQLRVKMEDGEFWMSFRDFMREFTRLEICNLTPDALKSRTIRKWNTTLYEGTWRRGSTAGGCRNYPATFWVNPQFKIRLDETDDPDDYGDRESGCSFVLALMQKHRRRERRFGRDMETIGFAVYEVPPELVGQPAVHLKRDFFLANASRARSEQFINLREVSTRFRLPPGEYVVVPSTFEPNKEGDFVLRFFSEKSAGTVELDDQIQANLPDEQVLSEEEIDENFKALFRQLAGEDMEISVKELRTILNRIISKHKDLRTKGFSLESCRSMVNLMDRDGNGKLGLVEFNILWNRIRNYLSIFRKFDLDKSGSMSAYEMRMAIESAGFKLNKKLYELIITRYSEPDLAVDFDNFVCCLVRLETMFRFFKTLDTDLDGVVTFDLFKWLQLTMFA
T1 sequence (P04632 1-268 partner): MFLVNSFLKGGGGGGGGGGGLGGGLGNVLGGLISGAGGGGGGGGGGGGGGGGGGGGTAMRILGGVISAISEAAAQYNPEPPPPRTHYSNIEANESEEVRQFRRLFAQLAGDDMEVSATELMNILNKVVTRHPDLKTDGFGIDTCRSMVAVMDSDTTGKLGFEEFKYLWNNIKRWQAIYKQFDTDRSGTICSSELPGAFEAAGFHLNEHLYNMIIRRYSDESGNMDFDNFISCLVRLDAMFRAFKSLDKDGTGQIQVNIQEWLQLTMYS
Protocol: Calpain-1 (calpain-1 from human erythrocytes, Cat. No. 208713, Merck Millipore) and a DMSO solution of a HMRG fluorescent probe for detecting calpain activity were added to each of 50 mM Tris buffers (pH: 7.4, 5 mM CaCl2), 2 mM DTE, 2 mM EGTA) containing various concentrations of SNJ-1945 or Compound 13 to perform fluorescence assays (the final concentration of the fluorescent probe was 5 μM, and the final concentration of calpain-1 was 6.48 μg/mL). […] The results are shown in FIG. 2 (concentrations shown in the figure each represent the final concentration of SNJ-1945 or Compound 13 in each assay). The following compound was used as the probe for detecting calpain activity.
An IC50 was determined on the basis of a graph produced with data analysis software “KaleidaGraph”. As a result, the IC50 of Compound 13 was 0.010 μM, and the IC50 of SNJ-1945 was 0.040 μM.

[2] = molecular target: T2, calpain (calpain-1) in the kit (Homo sapiens, UniProt P07384); assay: Calpain Inhibitory Activity Measurement 1 (SensorLyte 520 Calpain Activity Assay Kit, 5-FAM/QXL 520 substrate); assay type: biochemical; conditions: inhibitor 0.062 μM; 5-FAM/QXL 520 5.0 μM; 37° C., 25 minutes; compared with SNJ-1945
T2 construct: purchased AnaSpec, Inc. AS-72149
T2 sequence (P07384 1-714): T1 sequence (P07384 1-714)
T2 sequence (P04632 1-268 partner): T1 sequence (P04632 1-268 partner)
Protocol: Calpain inhibitory activity was measured with SensorLyte™ 520 Calpain Activity Asay Kit (AnaSpec, Inc., AS-72149) in conformity with a method described in its assay protocol. SNJ-1945 (Medkoo Biosciences, Inc., Cat #564979), Compound 13, Compound 14, Compound 18, or Compound 19 serving as a calpain inhibitor and a calpain (calpain-1) in the kit were mixed with each other in Assay Buffer, and the mixture was incubated at 37° C. for 3 minutes. 5-FAM/QXL™ 520 serving as a calpain enzyme substrate was added to the incubated product to perform an enzyme reaction by the calpain at 37° C. for 25 minutes (the final concentration of each inhibitor was 0.062 μM, and the final concentration of 5-FAM/QXL™ 520 was 5.0 μM). In the enzyme reaction, the enzyme substrate is cleaved by the calpain to emit fluorescence. The emission fluorescence intensity of the substrate was detected with a plate reader (Infinite™ 200 PRO, TECAN) (at an excitation wavelength of 490 nm and a fluorescence wavelength of 520 nm). SNJ-1945 is a known calpain inhibitor, and has the following structure.

SMILES | IC50 [1] | enzyme inhibitory activity on the calpain (fluorescence increase amount, FIG. 1) [2]
COCC(=O)N[C@@H](CC(C)C)C(=O)N[C@@H](Cc1ccccc1)C(=O)C(=O)NC1CC1 [Compound 13] | 10 nM | stronger than that of SNJ-1945
COC(C)(C)C(=O)N[C@@H](CC(C)C)C(=O)N[C@@H](Cc1ccccc1)C(=O)C(=O)NC1CC1 [Compound 14] |  | stronger than that of SNJ-1945
C#CCOCC(=O)N[C@@H](CC(C)C)C(=O)N[C@@H](Cc1ccccc1)C(=O)C(=O)NC1CC1 [Compound 18] |  | stronger than that of SNJ-1945
COCCC(=O)N[C@@H](CC(C)C)C(=O)N[C@@H](Cc1ccccc1)C(=O)C(=O)NC1CC1 [Compound 19, reference compound] |  | comparable to that of SNJ-1945
COCCOCCOC(=O)N[C@@H](CC(C)C)C(=O)N[C@@H](Cc1ccccc1)C(=O)C(=O)NC1CC1 [SNJ-1945, reference compound] | 40 nM | inhibited
